The results in this text go back to patent publication EP0904260B1, “INHIBITION OF MATRIX METALLOPROTEASES BY 2-(OMEGA-AROYLALKYL)-4-BIARYL-OXOBUTYRIC ACIDS” (Bayer Corporation, priority 1996, dated 1997).

The IC50 is the concentration needed to halve the response being measured. Read a high IC50 as weaker potency in that assay.

For experiment [1], the target named is T1, MMP-2 (Homo sapiens, UniProt P08253).
T1 sequence (P08253 110-660): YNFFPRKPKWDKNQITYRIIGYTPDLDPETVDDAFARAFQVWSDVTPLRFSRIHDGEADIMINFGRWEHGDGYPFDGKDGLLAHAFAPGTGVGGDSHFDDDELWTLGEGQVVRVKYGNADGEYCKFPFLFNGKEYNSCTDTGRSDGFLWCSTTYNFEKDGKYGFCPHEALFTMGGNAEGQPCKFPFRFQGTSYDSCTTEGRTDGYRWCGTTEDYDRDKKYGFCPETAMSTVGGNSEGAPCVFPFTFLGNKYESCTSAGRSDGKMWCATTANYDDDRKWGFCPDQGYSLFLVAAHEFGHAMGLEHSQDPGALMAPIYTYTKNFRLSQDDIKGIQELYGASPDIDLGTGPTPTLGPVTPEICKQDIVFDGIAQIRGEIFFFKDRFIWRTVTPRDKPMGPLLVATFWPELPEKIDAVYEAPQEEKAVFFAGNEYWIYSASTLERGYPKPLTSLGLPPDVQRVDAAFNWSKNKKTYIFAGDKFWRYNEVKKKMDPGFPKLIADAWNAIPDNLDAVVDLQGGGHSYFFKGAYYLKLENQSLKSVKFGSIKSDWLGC
The experiment is described as follows: biochemical.

For experiment [2], the target named is T2, MMP-3 (Homo sapiens, UniProt P08254).
T2 construct: made in house; host or cells: CHO cells
T2 sequence (P08254 100-477): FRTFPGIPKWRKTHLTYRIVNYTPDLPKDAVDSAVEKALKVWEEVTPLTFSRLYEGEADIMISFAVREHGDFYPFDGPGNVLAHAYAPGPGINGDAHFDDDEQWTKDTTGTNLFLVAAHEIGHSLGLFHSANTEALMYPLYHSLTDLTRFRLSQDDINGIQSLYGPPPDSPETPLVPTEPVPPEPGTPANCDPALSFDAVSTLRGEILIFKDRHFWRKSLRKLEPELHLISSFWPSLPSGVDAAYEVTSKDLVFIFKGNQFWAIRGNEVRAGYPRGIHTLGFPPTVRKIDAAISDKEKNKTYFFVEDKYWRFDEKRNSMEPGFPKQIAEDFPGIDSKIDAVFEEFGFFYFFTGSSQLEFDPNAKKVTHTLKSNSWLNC
It counts as biochemical. The following applies: 6 µM P218 substrate, approximately 0.5 to 0.8 nM MMP, 25 min. at 37°C, pH 6.5. An excerpt:
(§1) The P218 quenched fluorescence assay (Microfluorometric Profiling Assay) is a modification of that originally described by Knight, et al., FEBS Lett. 296, 263, 1992 for a related substance and a variety of matrix metalloproteinases (MMPs) in cuvettes. The assay was run with each invention compound and the three MMPs. MMP-3, MMP-9 and MMP-2, analyzed in parallel. adapted as follows for a 96-well microtiter plate and a Hamilton AT® workstation.
(§2) P218 Fluorogenic Substrate: P218 is a synthetic substrate containing a 4-acetyl-7-methoxycoumarin ( MCA) group in the N-terminal position and a 3-[2,4-dinitrophenyl]-L-2,3-diaminopropionyl (DPA) group internally. This is a modification of a peptide reported by Knight (1992) that was used as a substrate for matrix metalloptoteinases. Once the P218 peptide is cleaved (putative clip site at the Ala-Leu bond), the fluorescence of the MCA group can be detected on a fluorometer with excitation at 328 nm and emission at 393 nm. P218 is currently being produced by BACHEM Bioscience, Inc.exclusively for the Bayer Corporation. P218 has the structure: [formula]
Recombinant Human CHO Pro-MMP-3: Human CHO pro-stromelysin-257 (pro-MMP-3) was expressed and purified as described by Housley, et al., J. Biol. Chem. 268, 4481, 1993.
Activation of Pro-MMP-3: Pro-MMP-3 at 1.72 µM (100 µg/mL) in 5 mM Tris at pH 7.5, 5 mM CaCl2, 25 mM NaCl, and 0.005% Brij-35 (MMP-3 activation buffer) was activated by incubation with TPCK (N-tosyl-(L)-phenylalanine chioromethyl ketone) trypsin (1:100 w/w to pro-MMP-3) at 25 °C for 30 min. The reaction was stopped by addition of soybean trypsin inhibitor (SBTI; 5:1 w/w to trypsin concentration). This activation protocol results in the formation of 45 kDa active MMP-3, which still contains the C-tenninal portion of the enzyme.
(§3) Hamiltion Microlab AT Plus: The MMP-Profiling Assay was performed robotically on a Hamilton MicroLab AT Plus®. The Hamilton was programmed to: (1) serially dilute up to 11 potential inhibitors automatically from a 2.5 mM stock in 100% DMSO; (2) distribute substrate followed by inhibitor into a 96 well Cytofluor plate; and (3) add a single enzyme to the plate with mixing to start the reaction. Subsequent plates for each additional enzyme were prepared automatically by beginning the program at the substrate addition point, remixing the diluted inhibitors and beginning the reaction by addition of enzyme. In this way, all MMP assays were done using the same inhibitor dilutions.
(§4) Millipore Cytofluor II. Following incubation, the plate was read on a Cytofluor II fluoromeiric plate reader with excitation at 340 nm and emission at 395 nm with the gain set at 80.
(§5) Microfluorometric Reaction Buffer (MRB): Dilution of test compounds, enzymes, and P218 substrate for the microfluorometric assay were made in microfluorometric reaction buffer consisting of 50 mM 2-(N-morpholino)ethanesulfonic acid (MES) at pH 6.5 with 10 mM CaCl2, 150 mM NaCl. 0.005% Brij-35 and 1% DMSO.
(§6) MMP Microfluorometric Profiling Assay. The assay was done with a final substrate concentration of 6 µM P218 and approximately 0.5 to 0.8 nM MMP with variable drug concentrations. The Hamilton was programmed to serially dilute up to 11 compounds from a 2.5 mM stock (100% DMSO) to 10x the final compounds concentrations in the assay. Initially, the instrument delivered various amounts of microfluorometric reaction buffer (MRB) to a 96 tube rack of 1 mL Marsh dilution tubes. The instrument then picked up 20 µL of inhibitor (2.5 mM) from the sample rack and mixes it with a buffer in row A of the Marsh rack, resulting in a 50 µM drug concentration. The inhibitors were then serially diluted to 10, 5, 1, .2, 0.05 and 0.01 µM. […] The instrument re-mixed and loads 14.5 µL of diluted compound from rows A to G in the Marsh rack to corresponding rows in the microtiter plate. (Row H represents the "background" row and 39.5 µL of MRB was delivered in placed of drug or enzyme). […]

Experiment [3] deals with T3, MMP-9 (Homo sapiens, UniProt P14780).
T3 construct: made in house
T3 sequence (P14780 107-707 limits assumed): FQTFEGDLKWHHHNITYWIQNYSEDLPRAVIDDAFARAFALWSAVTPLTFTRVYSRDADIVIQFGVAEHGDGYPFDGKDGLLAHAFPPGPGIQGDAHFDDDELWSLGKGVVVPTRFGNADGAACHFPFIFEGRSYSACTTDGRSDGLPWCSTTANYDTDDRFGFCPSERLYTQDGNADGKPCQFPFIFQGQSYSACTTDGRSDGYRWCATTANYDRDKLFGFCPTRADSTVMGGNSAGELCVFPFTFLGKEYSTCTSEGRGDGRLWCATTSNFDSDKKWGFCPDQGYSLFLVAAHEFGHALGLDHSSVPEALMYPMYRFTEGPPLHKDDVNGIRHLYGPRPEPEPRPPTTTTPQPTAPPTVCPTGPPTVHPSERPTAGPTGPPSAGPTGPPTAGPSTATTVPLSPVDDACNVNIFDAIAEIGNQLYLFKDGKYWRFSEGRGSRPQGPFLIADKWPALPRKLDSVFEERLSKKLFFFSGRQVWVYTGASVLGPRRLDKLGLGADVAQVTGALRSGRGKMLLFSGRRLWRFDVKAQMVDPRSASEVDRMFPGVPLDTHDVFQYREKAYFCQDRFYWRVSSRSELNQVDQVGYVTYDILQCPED
It counts as biochemical. The following applies: 6 µM P218 substrate, approximately 0.5 to 0.8 nM MMP, 25 min. at 37°C, pH 6.5.
Source text: as §1, §2
Recombinant Human Pro-MMP-9: Human pro-gelatinase B (pro-MMP-9) derived from U937 cDNA as described by Wilhelm, et al. J. Biol. Chem. 264, 17213, 1989 was expressed as the full-length form using a baculovirus protein expression system. The pro-enzyme was purified using methods previously described by Hibbs, et al. J. Biol. Chem. 260, 2493, 1984.
Activation of Pro-MMP-9: […] 20 µg/mL in 50 mM Tris at pH 7.4, 10mM […], 150 mM NaCl, and 0.005% Brij-35 (MMP-9 activation buffer) was activated by incubation with 0 5 mM p-aminophenylmercuric acetate (APMA) for 3.5 h at 37 °C. The enzyme was dialyzed against the same buffer to remove the APMA.
as §3, §4, §5, §6

Regarding `COc1ccc(C(=O)CCCC(CC(=O)c2ccc(-c3ccc(Cl)cc3)cc2)C(=O)O)cc1` (stereo not drawn) [Compound X, 4'-chloro-α-[4-(4-methoxyphenyl)-4-oxobutyl]-γ-oxo-[1,1'-biphenyl]-4-butanoic acid], the half-maximal inhibitory concentration (IC50) was determined as 0.0251 µM in experiment [1], 0.122 µM in experiment [2] and 0.145 µM in experiment [3].
As for `CC(C)c1ccc(C(=O)CCCC(CC(=O)c2ccc(-c3ccc(Cl)cc3)cc2)C(=O)O)cc1` (stereo not drawn) [Compound XV, 4'-chloro-α-[4-[4-(1-methylethyl)phenyl]-4-oxobutyl]-γ-oxo-[1,1'-biphenyl]-4-butanoic acid], the IC50 in experiment [1] was determined as 0.0357 µM; in experiment [2] it was 0.13 µM; in experiment [3], 0.133 µM.
On the same counts, the results for `COc1ccccc1C(=O)CCCC(CC(=O)c1ccc(-c2ccc(Cl)cc2)cc1)C(=O)O` (stereo not drawn) [Compound XVI, 4'-chloro-α-[4-(2-methoxyphenyl)-4-oxobutyl]-γ-oxo-[1,1'-biphenyl]-4-butanoic acid] are 0.0262 µM, 0.0482 µM and 0.152 µM.
Taken in the same sequence, the figures for `O=C(CCCC(CC(=O)c1ccc(-c2ccc(Cl)cc2)cc1)C(=O)O)c1ccccc1` (stereo not drawn) [I, 4'-chloro-y-oxo-α-(4-oxo-4-phenylbutyl)-[1,1'-biphenyl]-4-butanoic acid] were 0.00997 µM, 0.065 µM and 0.0657 µM.
On the same counts, the results for `O=C(CCC(CC(=O)c1ccc(-c2ccc(Cl)cc2)cc1)C(=O)O)c1ccccc1` (stereo not drawn) [II, 4'-chloro-y-oxo-α-(3-oxo-3-phenylpropyl)-[1,1'-biphenyl]-4-butanoic acid] are 0.0096 µM, 0.096 µM and 0.127 µM.
On to `O=C(CCCCC(CC(=O)c1ccc(-c2ccc(Cl)cc2)cc1)C(=O)O)c1ccccc1` (stereo not drawn) [III, 4'-chloro-γ-oxo-α-(5-oxo-5-phenylpentyl)-[1,1'-biphenyl]-4-butanoic acid], for which the figures for the IC50 in experiment [1], in experiment [2] and in experiment [3] were 0.00752 µM, 0.0611 µM and 0.0524 µM, respectively.
On the same counts, the results for `O=C(CCCCCC(CC(=O)c1ccc(-c2ccc(Cl)cc2)cc1)C(=O)O)c1ccccc1` (stereo not drawn) [IV, 4'-chloro-γ-oxo-α-(6-oxo-6-phenylhexyl)-[1,1'-biphenyl]-4-butanoic acid] are 0.0341 µM, 0.109 µM and 0.175 µM.
Consider `O=C(CCCC(CC(=O)c1ccc(-c2ccc(Cl)cc2)cc1)C(=O)O)c1ccc(Br)cc1` (stereo not drawn) [IX], for which the values for the IC50 in experiment [1], in experiment [2] and in experiment [3] were 0.0283 µM, 0.125 µM and 0.131 µM, respectively.
As to `Cc1ccc(C(=O)CCCC(CC(=O)c2ccc(-c3ccc(Cl)cc3)cc2)C(=O)O)cc1` (stereo not drawn) [VIII, 4'-chloro-α-[4-(4-methylphenyl)-4-oxobutyl]-γ-oxo-[1,1'-biphenyl]-4-butanoic acid], the IC50 stood at 0.019 µM in experiment [1], 0.0691 µM in experiment [2] and 0.108 µM in experiment [3].
On the same counts, the results for `O=C(CCCC(CC(=O)c1ccc(-c2ccc(Cl)cc2)cc1)C(=O)O)c1ccc(Oc2ccccc2)cc1` (stereo not drawn) [VII] are 0.131 µM, 0.367 µM and 0.0657 µM.
On the same counts, the results for `Cc1cc(C)c(C(=O)CCCC(CC(=O)c2ccc(-c3ccc(Cl)cc3)cc2)C(=O)O)c(C)c1` (stereo not drawn) [VI] are 0.0308 µM, 0.0396 µM and 1.31 µM.
On the same counts, the results for `COc1cc(OC)c(C(=O)CCCC(CC(=O)c2ccc(-c3ccc(Cl)cc3)cc2)C(=O)O)c(OC)c1` (stereo not drawn) [V] are 0.00813 µM, 0.0717 µM and 0.132 µM.
As to `COc1ccc(C(=O)CCCC(CC(=O)c2ccc(-c3ccc(Cl)cc3)cc2)C(=O)O)c(OC)c1` (stereo not drawn) [XII, 4'-chloro-α-[4-(2,4-dimethoxyphenyl)-4-oxobutyl]-γ-oxo-[1,1'-biphenyl]-4-butanoic acid], the IC50 came out at 0.0251 µM in experiment [1], 0.115 µM in experiment [2] and 0.225 µM in experiment [3].
Take `CC(C)(C)c1ccc(C(=O)CCCC(CC(=O)c2ccc(-c3ccc(Cl)cc3)cc2)C(=O)O)cc1` (stereo not drawn) [XIII]: the IC50 came to 0.0716 µM in experiment [1], 0.222 µM in experiment [2] and 0.167 µM in experiment [3].
On the same counts, the results for `CCc1ccc(C(=O)CCCC(CC(=O)c2ccc(-c3ccc(Cl)cc3)cc2)C(=O)O)cc1` (stereo not drawn) [XIV, 4'-chloro-α-[4-(4-ethylphenyl)-4-oxobutyl]-γ-oxo-[1,1'-biphenyl]-4-butanoic acid] are 0.0294 µM, 0.089 µM and 0.126 µM.
Taken in the same sequence, the figures for `Cc1ccc(C(=O)CCCC(CC(=O)c2ccc(-c3ccc(Cl)cc3)cc2)C(=O)O)cc1C` (stereo not drawn) [XI] were 0.0483 µM, 0.104 µM and 0.105 µM.
